# Laboratory results as given in EP0452507A1, “MEDICINE COMPRISING TOCOPHERYL GLYCOSIDE AS ACTIVE INGREDIENT” (NIPPON HYPOX LABORATORIES INCORPORATED, priority 1989, dated 1991).
# Experiments:
# [1] = system: antigen-adjuvant-induced inflammation; assay: antigen-adjuvant-induced inflammation, right hind paw swelling by volumetry; format: in vivo, rats; details: 10 mg/kg intraperitoneally
# Method: At first, five groups each consisting of five SD male rats weighing 180 to 220 g (total 25 rats) were prepared, and each rat was measured for a size of the subplantar region of the right hind paw. As an antigen to cause an antigen-adjuvant-induced inflammation, 0.2 mg/rat of egg-white albumin was used. Further, as an immune aid (adjuvant), a mixture consisting of 4 mg/rat of aluminum hydroxide and 0.1 ml/rat of pertussis vaccine was prepared.
# One out of the five groups was used as Control group. A physiological saline solution of 10 % Nikkol (trade name, dissolving aid, supplied by Nikko Chemical Co., Ltd.) was administered intraperitoneally to each rat, and 0.5 hour after the administration of the physiological saline solution of 10 % Nikkol, the above antigen and adjuvant were administered intracutaneously into the subplantar region of the right hind paw. Then, 0.5, 1, 2, 4, 6, 12 and 24 hours after the administration of the antigen and adjuvant, the swelling on the subplantar region of the right hind paw of each rat was measured by volumetry. And, the average of swelling ratios of the group in every measurement was determined on the basis of the measurement values of the sizes of subplantar regions of the right hind paws of the rats obtained before the administration of the physiological saline solution of 10 % Nikkol.
# One of the remaining four groups was used as Example group @. A physiological saline solution of 10 % Nikkol containing VIE-MAN was administered intraperitoneally into each rat of this group in such a dose that the amount of VIE-MAN was 10 mg/kg, and 0.5 hours after the administration of the physiological saline solution of 10 % Nikkol containing VIE-MAN, the above antigen and adjuvant were administered intracutaneously into the subplantar region of the right hind paw. Thereafter, the swelling on the subplantar region of the right hind paw of each rat was measured in the same manner as that for Control group, and the average of swelling ratios of the group in every measurement was determined.
# The same procedure as that for Example group ⑧ was carried out except that a physiological saline solution of 10 % Nikkol containing hydrocortisone which was an anti-inflammatory preparation (immunosuppressive preparation) in place of the physiological saline solution of 10 % Nikkol containing VIE-MAN was administered intraperitoneally in such a dose that the amount of the hydrocortisone was 10 mg/kg.
# The same procedure as that for Example group ⑧ was carried out except that a physiological saline solution of 10 % Nikkol containing diphenhydramine which was an antihistamine preparation in place of the physiological saline solution of 10 % Nikkol containing VIE-MAN was administered intraperitoneally in such a dose that the amount of the diphenhydramine was 10 mg/kg.
# The same procedure as that for Example group ⑧ was carried out except that a physiological saline solution of 10 % Nikkol containing indomethacin which was a nonsteroidal anti-inflammatory preparation (antipyretic analgesic antiphlogistic preparation) in place of the physiological saline solution of 10 % Nikkol containing VIE-MAN was administered intraperitoneally in such a dose that the amount of the indomethacin was 10 mg/kg.
# At first, four groups each consisting of five male SD rats weighing 180 to 220 g (total 20 rats) were prepared, and each rat was measured for a size of the subplantar region of the right hind paw. As an antigen to cause an antigen- adjuvant-induced inflammation, 0.2 mg/rat of egg-white albumin was prepared. Further, as an immune aid (adjuvant), a mixture consisting of 4 mg/rat of aluminum hydroxide and 0.1 ml/rat of pertussis vaccine was prepared.
# One out of the four groups was used an Control group, and the procedure for Control group in Example 4 was repeated to determine the average of the swelling ratios as a group unit.
# [2] = system: stomach (mucosal ulcer in the glandular portion); format: in vivo, rats; details: rat, in vivo
# Method: 15 male SD rats weighing 180 to 220 g were used. These rats were fasted for 24 hours, and separated to three groups each consisting of 5 rats.
# Then, one group was used as Control group. A physiological saline solution of 10 % Nikkol was administered intraperitoneally, and the rats were sacrificed with ether 16 hours after the administration. The stomach of each rat was removed, and after 10 ml of physiological saline was injected into the stomachs, the stomachs were fixed by immersing them in a 1 % formalin for 10 minutes. Each stomach was dissected along the greater curvatura, and the length (mm) of mucosal ulcer which occurred in the glandular portion was measured under an anatomical microscope (x 10). The average of the ulcer lengths of the five rats was taken as an ulcer index.
# One out of the remaining two groups was used as Example group @. The procedure for Control group was repeated except that a physiological saline solution of 10 % Nikkol containing VIE-MAN in place of the physiological saline solution of 10 % Nikkol was administered intraperitoneally in such a dose that the amount of VIE-MAN was 300 mg/kg, and the ulcer index was determined.
# The remaining one group was used as Comparative Example group ⓘ. The procedure for Example group 17 was repeated except that a physiological saline solution of 10 % Nikkol containing indomethacin, which was a nonsteroidal anti-inflammatory preparation (antipyretic analgesic antiphlogistic preparation), in place of the physiological saline solution of 10 % Nikkol was administered intraperitoneally in such a dose that the amount of the indomethacin was 20 mg/kg, and the ulcer index was determined.
# [3] = system: delayed-type hypersensitivity; assay: picryl chloride-induced delayed-type hypersensitivity, ear swelling ratio; format: in vivo, mice; details: Example 1, Fig. 1; VIE-MAN 10, 30, 100 mg/kg/day versus methotrexate 1 mg/kg/day, intraperitoneally
# Method: 76 Male mice (C57BU6Ncrj) weighing 18 to 20 g were used. The abdominal portion of each mouse was shaved such that the shaved portion was about 1 cm^2. Thereafter, 20 µl of an ethanol solution of 7 % picryl chloride was applied to the shaved portions for sensitization.
# Eighteen out of the 76 mice were used as Control group. A physiological saline solution containing 10 % Nikkol (Nikkol: trade name, dissolving aid, supplied by Nikko Chemical Co., Ltd.) was administered intraperitoneally to the 18 mice for the consecutive 5 days after the sensitization, and ear thickness of each of these 18 mice was measured on the eighth day after the sensitization. Thereafter, 20 µl of an olive oil solution of 1 % picryl chloride was applied to the ear of each of the mice to cause delayed-type hypersensitivity.
# The above pharmaceutical solutions were administered intraperitoneally at the above-described doses for the five consecutive days after the sensitization, and ear thickness of each of these mice was measured on the eighth day after the sensitization. Thereafter, 20 µl of an olive oil solution of 1 % picryl chloride was applied to the ear of each of the mice to cause delayed-type hypersensitivity.
# 24 Hours after the delayed-type hypersensitivity was induced, the swelling of the ear of each of the mice of Control group and Example groups ①, ②and③ was measured with a dial thickness gauge. On the basis of the values of the ear thickness measured before the application of the olive oil solution of 1 % picryl chloride, the swelling ratio of each of Example groups ①, ② and ③ and Control group was determined.
# And, the swelling ratio of the mice was determined.
# At first, the abdominal portion of each of forty ICR male mice weighing 20 to 25 g was shaved such that the shaved portion was about 1 cm^2. Thereafter, 20 µl of an ethanol solution of 7 % picryl chloride was applied to the shaved portions for sensitization.
# [4] = system: IgE antibody; format: in vivo, rats
# Method: At first, 20 male SD rats weighing 180 to 220 g were prepared. Egg-white albumin in an amount of 1 mg per rat was prepared as an antigen to induce the IgE antibody-antigen mediating immune response. Further, a mixture of 20 mg/rat of aluminum hydroxide with 0.6 mi/rat of pertussis vaccine was prepared as an immune aid (adjuvant).
# Then, the above antigen and the above adjuvant were equally administered intracutaneously into the four footpads of each rat for sensitization.
# 24 Hours after the sensitization, the footpad swelling of each rat was measured by volumetry to determine the swelling ratio (unit: %). Then, the rats were separated into four groups each consisting of 5 rats such that the average swelling ratio of one group was nearly equal to that of another group.
# Thereafter, one of the four groups was used as Control group, and a physiological saline solution of 10 % Nikkol (trade name, dissolving aid, supplied by Nikko Chemical Co., Ltd.) was administered intraperitoneally to each rat for the 11 consecutive days after the group separation, and on 15th day after the group separation, the serum of each rat was collected, and measured for an IgE antibody amount by means of a 48-hour homologous PCA reaction (passive cutaneous anaphylaxis reaction) as an index. In addition, the IgE antibody amount is shown in terms of a maximum dilution (unit: %) of serum showing positive reaction (blue spot having a diameter of not less than 5 mm).
# Two groups of the remaining three groups were used as Example groups ⑥ and 0. A physiological saline solution of 10 % Nikkol containing VIE-MAN was administered intraperitoneally to each rat of Example group ⑥ in such a dose that the amount of VIE-MAN was 30 mg/kg/day for 11 days after the group separation. And, a physiological saline solution of 10 % Nikkol containing VIE-MAN was administered intraperitoneally to each rat of Example group 0 every other day (number of days for administration: 6 days) in such a dose that the amount of VIE-MAN was 100 mg/kg/day for 11 days after the group separation. Then, on 15th day after the group separation, the serum of each rat was collected, and measured for an IgE antibody amount in the same manner as that for Control group.
# One remaining group of the four groups was used as Comparative Example group @. A physiological saline solution of 10 % Nikkol containing hydrocortisone which was an adrenocortical hormone preparation was administered intraperitoneally to each rat in such a dose that the amount of the hydrocortisone was 10 mg/kg/day for the consecutive 11 days after the group separation. Then, on 15th day after the group separation, the serum of each rat was collected, and measured for an IgE antibody amount in the same manner as that for Example groups 6 and ⑦.
# [5] = system: carrageenin-induced inflammation; assay: carrageenin-induced inflammation, right hind paw swelling by volumetry; format: in vivo, rats; details: Example 7, Fig. 6
# Method: Six groups each consisting of five male SD rats weighing 180 to 220 g were used (total 30 rats), and each rat was measured for a size of the subplantar region1 of the right hind paw.
# In order to induce carrageenin-induced inflammation, 0.1 ml/rat of a physiological saline solution of 1 % X-carrageenin was prepared.
# One out of the six groups was used as Control group. A physiological saline solution of 10 % Nikkol was administered intraperitoneally to each rat of this group, and 0.5 hours after the administration of the physiological saline solution of 10 % Nikkol, 0.1 ml of the physiological saline solution of 1 % X-carrageenin was administered intracutaneously into the subplantar region of the right hind paw of each rat. Then, 0.5, 1, 2, 3 and 4 hours after the administration of […] of the physiological saline solution of 1 % X-carrageenin, the swelling on the subplantar region of the right hind paw of each rat was measured by volumetry, arid the average of swelling ratios of the group in every measurement was determined on the basis of the measurement values of the sizes of subplantar regions of the right hind paws of the rats obtained before the administration of the physiological saline solution of 10 % Nikkol solution.
# The procedure for Control group was repeated except that a physiological saline solution of 10 % Nikkol containing VIE-MAN in place of the physiological saline solution of 10 % Nikkol was administered intraperitoneally in such a dose that the amount of VIE-MAN was 10 mg/kg.
# The procedure for Control group was repeated except that a physiological saline solution of 10 % Nikkol containing VIE-MAN in place of the physiological saline solution of 10 % Nikkol was administered intraperitoneally in such a dose that the amount of VIE-MAN was 30 mg/kg.
# The procedure for Control group was repeated except that a physiological saline solution of 10 % Nikkol containing VIE-MAN in place of the physiological saline solution of 10 % Nikkol was administered intraperitoneally in such a dose that the amount of VIE-MAN was 100 mg/kg.
# The procedure for Example groups ⑭, ⑮ and ⑯ was repeated except that a physiological saline solution of 10 % Nikkol containing cortisone acetate which was a steroidal anti-inflammatory preparation (immunosuppressive preparation) in place of the physiological saline solution of 10 % Nikkol containing VIE-MAN was administered intraperitoneally in such a dose that the amount of the cortisone acetate was 10 mg/kg.
# The procedure for Example groups ⑭, ⑮ and ⑯ was repeated except that a physiological saline solution of 10 % Nikkol containing indomethacin which was a nonsteroidal anti-inflammatory preparation (antipyretic analgesic antiphlogistic preparation) in place of the physiological saline solution of 10 % Nikkol containing VIE-MAN was administered intraperitoneally in such a dose that the amount of the indomethacin was 10 mg/kg.
compound,measurement,setting,value
"CN(C)CCOC(c1ccccc1)c1ccccc1 [diphenhydramine, reference compound]",inhibition activity against antigen-adjuvant-induced inflammations,"[1]; Example 4, Fig. 3",no inhibition activity was found
"Cc1c(C)c2c(c(C)c1OC1OC(CO)C(O)C(O)C1O)CCC(C)(CCCC(C)CCCC(C)CCCC(C)C)O2 (racemic) [VIE-GAL, dl-a-tocopheryl-,B-galactoside]",inhibition activity against antigen-adjuvant-induced inflammations,"[1]; Example 5, Fig. 4, 10 mg/kg",also superior
same,average of the swelling ratios,"[1]; Example 5, Fig. 4, 0.5 hour after administration of antigen and adjuvant, versus Control group",significantly lower than that of the swelling ratios of Control group
same,side effect on the digestive system,[2],nearly similar results to that of the test on VIE-MAN
"CN(Cc1cnc2nc(N)nc(N)c2n1)c1ccc(C(=O)N[C@@H](CCC(=O)O)C(=O)O)cc1 [methotrexate, reference compound]",preventive and therapeutical effect on delayed-type hypersensitivity (comparison),[3],VIE-MAN was superior to methotrexate
"C[C@]12CCC(=O)C=C1CC[C@@H]1[C@@H]2[C@@H](O)C[C@@]2(C)[C@H]1CC[C@]2(O)C(=O)CO [hydrocortisone, reference compound]",inhibition activity against the IgE antibody production,"[4]; Example 3 / Comparative Example 2, VIE-MAN 30 or 100 mg/kg/day, hydrocortisone 10 mg/kg/day, intraperitoneally",lower than that of VIE-MAN
same,"IgE antibody amount in serum, Average value","[4]; group average, (total 11 days) intraperitoneally, maximum dilution of serum showing positive reaction",473.6
same,inhibition activity against antigen-adjuvant-induced inflammations,"[1]; Example 4, Fig. 3",no inhibition activity was found
CC(=O)OCC(=O)[C@@]1(O)CC[C@H]2[C@@H]3CCC4=CC(=O)CC[C@]4(C)[C@H]3C(=O)C[C@@]21C [cortisone acetate],inhibition activity against carrageenin-induced inflammation,"[5]; VIE-MAN 10, 30, 100 mg/kg, depending upon its dose, comparators 10 mg/kg, intraperitoneally",significant activity at and after 0.5 hour
same,inhibition activity against carrageenin-induced inflammation compared with VIE-MAN,[5]; comparators 10 mg/kg intraperitoneally,lower than that of VIE-MAN
